# From patent US10759781B2, “Substituted guanidine derivatives” (UBE INDUSTRIES, LTD., priority 2015, dated 2020)
# What was measured:
# Rat Plasma VAP-1 = molecular target: T1, Rat Plasma VAP-1 (Rattus norvegicus, UniProt O08590); assay: (Ex vivo) rat plasma VAP-1 inhibition test after oral administration of the compound; format: in vivo; settings: 3 hours after oral administration, SD male rats, read-out: inhibition ratio (plasma VAP-1, ex vivo)
# T1 construct: from tissue; host or cells: plasma of SD male rats (7-12 weeks old) after oral dosing
# T1 sequence (O08590 28-763 limits assumed): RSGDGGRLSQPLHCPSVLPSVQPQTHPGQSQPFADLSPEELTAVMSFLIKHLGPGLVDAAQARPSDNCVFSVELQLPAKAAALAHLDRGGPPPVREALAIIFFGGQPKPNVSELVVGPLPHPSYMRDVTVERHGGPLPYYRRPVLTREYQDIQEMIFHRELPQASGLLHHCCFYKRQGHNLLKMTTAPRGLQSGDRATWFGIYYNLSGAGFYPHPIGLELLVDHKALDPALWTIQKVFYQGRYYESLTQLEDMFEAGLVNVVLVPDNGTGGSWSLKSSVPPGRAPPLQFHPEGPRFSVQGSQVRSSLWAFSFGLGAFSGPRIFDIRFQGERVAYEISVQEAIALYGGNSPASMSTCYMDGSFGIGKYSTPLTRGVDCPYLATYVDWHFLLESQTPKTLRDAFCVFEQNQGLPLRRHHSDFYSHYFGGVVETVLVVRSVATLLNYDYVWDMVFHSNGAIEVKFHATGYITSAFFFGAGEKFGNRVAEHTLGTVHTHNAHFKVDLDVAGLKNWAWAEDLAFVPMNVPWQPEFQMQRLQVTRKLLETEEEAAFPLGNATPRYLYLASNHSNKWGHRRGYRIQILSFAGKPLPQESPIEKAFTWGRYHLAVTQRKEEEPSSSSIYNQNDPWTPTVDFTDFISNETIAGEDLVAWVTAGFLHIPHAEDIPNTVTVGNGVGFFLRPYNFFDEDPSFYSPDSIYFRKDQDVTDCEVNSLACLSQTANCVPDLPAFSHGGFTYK
# How it was run: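 Male SD rats, 7–12 weeks, non-fasted, dosed orally at 0.3–10 mg/kg; jugular blood taken predose and 3, 8 and 24 h after dosing. Plasma incubated with 2.5 μM 14C-benzylamine for 3 h at 37 °C; extracted product counted by scintillation. Inhibition expressed relative to each animal's predose plasma activity.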
# [1] = system: Human normal glomerular microvascular endothelial cells; format: cell-based; settings: 2 days, 100 nM
# Description: The Cytotoxicity Inhibition Test in Human Normal Glomerular Microvascular Endothelial Cells
# (§1) Human normal glomerular microvascular endothelial cells were plated at 6000 cells/well in a collagen-coated 96-well culture plate. After one day of culture, the medium at each well was completely removed by aspiration and replaced with 50 μL of the compound solution diluted with the basal medium. The basal medium containing 0.1% DMSO was added to control wells. Following, the plate was incubated in CO2 incubator for 30 minutes. Fifty microliter of 2 mM methylamine diluted with the basal medium was added (final concentration 1 mM) to each negative control well (0% inhibition) as well as the compound-containing well, and 50 μL of the basal medium was added to each positive control well (100% inhibition). The plate was incubated in CO2 incubator for 2 days. Ten microliter of CCK-8 was added to each well and the mixtures were incubated in a plate incubator at 37° C. for approximately 2 hours after stirring with a plate shaker. The absorbance of the mixtures at 450 nm was measured with a multiplate reader. The cytotoxicity inhibition ratio of the compound was calculated from the following equation. Inhibition ratio={[Average absorbance of the compound-containing wells]−[Average absorbance of negative control wells]}/{[Average absorbance of positive control wells]−[Average absorbance of negative control wells]}×100
# [2] = system: Human normal hepatic sinusoid-like microvascular endothelial cells; format: cell-based; settings: 2 days, 300 nM
# Description: The Cytotoxicity Inhibition Test in Human Normal Hepatic Sinusoid-Like Microvascular Endothelial Cells
# as §1, with “hepatic sinusoid-like” for “glomerular”
# in vivo = assay: in vivo; set-up: species or system SD rats; settings: SD, rat, po, 3 mg/kg
# Description: Rat Pharmacokinetic (PK) Study (Concentration of Compound in Plasma after Oral Administration)
# Seven to eight week old SD rats (weighing 180 to 250 g) were orally administered with a suspension of the compound in 0.5 W/V % methylcellulose 400 solution. Under anesthesia, the blood was collected from the jugular vein in EDTA tubes at 0.25, 0.5, 1, 2, 4, 6, 8 and 24 hours after the administration of the compound. The blood was centrifuged at 4° C. and 6000 g for 3 minutes to give plasma. Acetonitrile was added to the plasma, and the mixture was stirred with a shaker at 750 rpm for 3 minutes and was deproteinized by centrifugation at 3700 rpm for 2 minutes. Thus, the obtained sample was analyzed by LC/MS under the following conditions.
# The concentration of the compound in the plasma at each blood sampling time was determined by an internal standard method, and AUC all (Area Under Curve) was calculated by a trapezoidal method.
# The following LC and MS systems were used for measurement.
# LC: CBM 30 series manufactured by Shimadzu Corporation
# Column: Phenomenex Kinetex C18 (50×2.1 mm, 2.6 μm)
# Column temperature: 40° C.
# Mobile phase A: 0.1% aqueous formic acid solution, mobile phase B: 0.1% formic acid,
# 50% acetonitrile/methanol mixture
# MS: 3200 manufactured by SCIEX
inhibition in vivo at 0.3 mg/kg (Rat Plasma VAP-1) [%],AUC (in vivo) [ng·h/mL],Compound,cytotoxicity inhibition ratio [1] [%],cytotoxicity inhibition ratio [2] [%]
≥ 50,≥ 1000,"CON=C1CN(c2ncc(-c3cccc(COC(=O)NC(=N)N)c3F)cc2F)C1 [Example 36, 2-fluoro-3-{5-fluoro-6-[3-(methoxyimino)azetidin-1-yl]pyridin-3-yl}benzyl carbamimidoylcarbamate]",≥ 50,≥ 50
≥ 50,≥ 1000,"[2H]C([2H])([2H])ON=C1CN(c2ncc(-c3cccc(COC(=O)NC(=N)N)c3F)cc2F)C1 [Example 37, 2-fluoro-3-(5-fluoro-6-{3-[(methoxy-d3)imino]azetidin-1-yl}pyridin-3-yl)benzyl carbamimidoylcarbamate]",≥ 50,≥ 50

# More lines, now with the values behind:
Compound,inhibition in vivo at 0.3 mg/kg (Rat Plasma VAP-1) [%],AUC (in vivo) [ng·h/mL],cytotoxicity inhibition ratio [1] [%],cytotoxicity inhibition ratio [2] [%]
"N=C(N)NC(=O)OCc1cccc(-c2cnc(N3CC(=NOCCC(O)CO)C3)c(F)c2)c1F (centres unmarked) [Example 95, 3-(6-{3-[(3,4-Dihydroxybutoxy)imino]azetidin-1-yl}-5-fluoropyridin-3-yl)-2-fluorobenzyl carbamimidoylcarbamate]",≥ 50,≥ 1000,≥ 50,≥ 50
"N=C(N)NC(=O)OCc1cccc(-c2cnc(N3CC(=NOCC(CO)CO)C3)c(F)c2)c1F [Example 96, 2-Fluoro-3-{5-fluoro-6-[3-{[3-hydroxy-2-(hydroxymethyl)propoxy]imino}azetidin-1-yl]pyridin-3-yl}benzyl carbamimidoylcarbamate]",≥ 50,≥ 1000,≥ 50,≥ 50
"N=C(N)NC(=O)OCc1cccc(-c2cnc(N3CC(=NOCC(F)CO)C3)nc2)c1F (centres unmarked) [Example 102, 2-Fluoro-3-(2-{3-[(2-fluoro-3-hydroxypropoxy)imino]azetidin-1-yl}pyrimidin-5-yl)benzyl carbamimidoylcarbamate]",≥ 50,≥ 1000,≥ 50,≥ 50
